In US20130237478A1, “COMPOSITIONS AND METHODS FOR TREATMENT OF PERIPHERAL VASCULAR DISEASE” (TARIX PHARMACEUTICALS LTD., priority 2012, published 2013):
“Also recorded” adds a separate entry of the source. Positions of bridges follow the written chain, without caps; N, C: chain ends. No end group written: not given here.

Tests used:
Type in all cases: in vivo, Balb/c mice
[1] = Body weight of mice in hind limb ischemia studies; settings: throughout the study
Procedure: Body weight of animals was measured before the surgery and once weekly thereafter.
(§1) The model and procedures used for this example is the same as for those in Examples 1 and 2, unless otherwise specified.

hind limb ischemia [2] = assay: Semi-quantitative assessment of limb function in mouse hind limb ischemia model
Description: (§2) A stable hind limb ischemia model has been described previously and is generally characterized by uniform ischemic damage useful for examining the effect of various therapies (Goto, et al. Tokai J Exp Clin Med, 31(3):128 2006; Kang Y, et al. PLoS One. 2009; 4(1):e4275)). The hind limb ischemia model in mice used in this example involves two ligations of the proximal end of the femoral artery and its dissection between the two ligatures. The surgery causes obstruction of the blood flow and subsequently leads to severe ischemic damage (Goto, et al.; Kang, et al.). In this experiment, healthy adult female Balb/c mice were used. Hind limb ischemia was induced in mice using protocols previously described. Briefly, Balb/c female mice were maintained on a standard diet with water available ad libitum. Mice were anesthetized and an incision was made in the skin in the inguinal area. The femoral artery was ligated twice with 6-0 silk thread and transected between the ligatures after this the wound was closed with 4-0 silk thread and the mouse was allowed to recover.
An Angiotensin (1-7) polypeptide composition (TXA127) and vehicle control (DPBS) were supplied as ready to use solutions and were stored at 4° C. until use. TXA127 was injected subcutaneously (500 μg/kg) daily starting on day 1, 24 hours after inducing ischemia, until the end of the study. […]
Semi-quantitative assessment of impaired use of the ischemic limb was performed once a week post-surgery using the scale shown in Table 6 (Stabile et al, Circulation 108(2):205 2003). […]
An Angiotensin (1-7) polypeptide composition (PanCyte) and vehicle control (DPBS) were supplied as ready to use solutions and were stored at 4° C. until use. […]
Semi-quantitative assessment of impaired use of the ischemic limb was performed once a week post-surgery using the scale shown in Table 6 above. […]
An Angiotensin (1-7) polypeptide composition (PanCyte, cyclized Asp^1-Arg^2-Val^3-Ser^4-Ile^5-His^6-Cys (SEQ ID NO:22)) and vehicle control (DPBS) were supplied as ready to use solutions and were stored at 4° C. until use. […]

hind limb ischemia [3] = assay: Blood flow by non contact laser Doppler in mouse hind limb ischemia model
Description: as §2, with “recover. […]” for “recover.”
Blood flow in legs from both sides of the animals was measured with a non contact laser Doppler before surgery and on days: 1, 7, 15, 21, 28, 35, 42 and 49 post operation. Blood flow measurements were expressed as the ratio of the flow in the ischemic limb to that in the normal limb.
as §2, with “The” for “A stable hind limb ischemia”, “used in this example” for “has been described previously and”, “the same as” for “generally characterized by uniform ischemic damage useful”, “Example 1. Briefly,” for “examining”, “the” for “the effect of various therapies (Goto, et al. Tokai J Exp Clin Med, 31(3):128 2006; Kang Y, et al. PLoS One. 2009; 4(1):e4275)). The”
An Angiotensin (1-7) polypeptide composition (PanCyte) and vehicle control (DPBS) were supplied as ready to use solutions and were stored at 4° C. until use. PanCyte was injected subcutaneously (500 μg/kg or 50 μg/kg) daily starting on day 1, 24 hours after inducing ischemia, until the end of the study. Negative control mice were injected subcutaneously with a vehicle.
as §1
An Angiotensin (1-7) polypeptide composition (PanCyte, cyclized Asp^1-Arg^2-Val^3-Ser^4-Ile^5-His^6-Cys (SEQ ID NO:22)) and vehicle control (DPBS) were supplied as ready to use solutions and were stored at 4° C. until use. In groups 2F-5F, PanCyte was injected subcutaneously (1 μg/kg, 5 μg/kg, 25 μg/kg, 50 μg/kg) daily starting on day 1, 24 hours after inducing ischemia, until the end of the study. In group 6F, an osmotic Alzet pump was implanted subcutaneously and provided for continuous release of PanCyte over the duration of the study. Negative control mice were injected subcutaneously with vehicle (DPBS).

## cyclized Asp^1-Arg^2-Val^3-Ser^4-Ile^5-His^6-Cys (SEQ ID NO:22) (DRVSIHC; bridge 4-7; not fully specified; printed as Asp1-Arg2-Val3-Ser4-Ile5-His6-Cys7) [PanCyte, cyclic angiotensin peptide]
[1]; Example 2, 500 or 50 μg/kg SC daily
  body weight vs vehicle: no statistically significant differences
[1]; Example 3, 1-50 μg/kg SC
  body weight vs vehicle: no statistically significant differences
Hind limb ischemia [2]; Example 2, 500 μg/kg SC daily (2F), day 28
  limb function vs control: improvement in limb function
Hind limb ischemia [2]; Example 3, 1 μg/kg SC daily (2F), days 14 and 21
  limb function vs control: improvement in limb function
Hind limb ischemia [2]; Example 3, 50 μg/kg continuous infusion by Alzet pump (6F), days 14 and 21
  limb function vs control: improvement in limb function
Hind limb ischemia [3]; Example 2, 50 μg/kg SC
  blood flow restored: 85 % of its normal values
Hind limb ischemia [3]; Example 2, 50 μg/kg SC daily (3F), from day 21 up to day 49, p<0.05-0.001
  improvement in blood flow vs vehicle: statistically significant improvement in blood flow
Hind limb ischemia [3]; Example 2, 500 μg/kg SC
  blood flow restored: 85 % of its normal values
Hind limb ischemia [3]; Example 2, 500 μg/kg SC daily (2F), from day 21 up to day 49, p<0.05-0.001
  improvement in blood flow vs vehicle: statistically significant improvement in blood flow
Hind limb ischemia [3]; Example 3, 1 μg/kg SC daily (2F), days 42 and 49
  improvement in blood flow vs vehicle: blood flow improvement reached statistically significance
Hind limb ischemia [3]; Example 3, 5 μg/kg SC daily (3F), days 42 and 49
  improvement in blood flow vs vehicle: blood flow improvement reached statistically significance
Hind limb ischemia [3]; Example 3, 25 μg/kg SC daily (4F), days 42 and 49
  improvement in blood flow vs vehicle: blood flow improvement reached statistically significance
Hind limb ischemia [3]; Example 3, 50 μg/kg SC daily injections (5F), day 35 up to day 49
  improvement in blood flow vs vehicle: significant improvement in blood flow
Hind limb ischemia [3]; Example 3, 50 μg/kg continuous SC by Alzet pump (6F), day 14 up to day 49
  improvement in blood flow vs vehicle: Statistically significant improvement in blood flow; also recorded: particularly good and early blood perfusion restoration
Hind limb ischemia [3]; Example 3, SC 1-50 μg/kg, dose dependent manner
  blood flow restored: up to 84 % of its normal values
